Patent US20140336248A1, “THERAPEUTIC COMPOSITIONS AND RELATED METHODS OF USE” (priority 2011, published 2014)

What was measured:
Format in all cases: in vivo, mouse
ICR mice [1] = assay: Tolerability 0.1, 0.3, 1.0 mg/kg IV in 1% ethanol/4% propylene glycol/5% Solutol HS 15, 4 days (Example P)
Method: (§1) Using the techniques described above in Example A, an aqueous vehicle comprising 1% ethanol (v/v), 4% propylene glycol (v/v) and 5% Solutol® HS 15 (v/v) was prepared. An appropriate amount of salinomycin sodium was dissolved into the vehicle to make solutions having concentrations of 0.02, 0.06, and 0.2 mg/mL. Eight male ICR mice (Sino-British SIPPR/BK Lab Animal Ltd, Shanghai, China) were assigned to control and treatment groups. […] The individual animal number was marked on the tail, and study number comprised a unique identification for each animal. Animal identification was verified during the course of the study. The animals were housed two per cage in stainless steel suspended cage in an environmentally controlled room. SLACOM (Rodent Diet #20110615029, Shanghai SLAC Laboratory Animal Co. Ltd.) was available ad libitum. Temperature and humidity were monitored and recorded twice daily.
(§2) Each composition and the vehicle (control) were administered once daily to each of two mice via intravenous bolus injection for 4 consecutive days. The dose levels for the treated groups and the control group are in the below table. Individual doses were based on the most recent body weight.
(§3) Body weights for all animals were measured and recorded at receipt, prior to randomization, and once daily during the study. Body weight change was calculated for mean value of animals relative to Day 1 mean body weight value.

ICR mice [2] = assay: Tolerability 0.1, 0.3, 1.0, 3.0 mg/kg IV in 5% ethanol/15% Solutol HS 15, 4 days (Example N)
Method: as §1, with “5%” for “1%”, “ethanol” for “ethanol (v/v), 4% propylene glycol”, “15%” for “5%”, “0.06, 0.2,” for “0.06,”, “0.3” for “0.2”, “Ten” for “Eight”
as §2, §3

ICR mice [3] = assay: Tolerability 1.5, 2.0, 3.0 mg/kg IV in 1% ethanol/4% propylene glycol/5% Solutol HS 15 (Example I); settings: for Body weight: FIG. 2
Method: (§4) Injectable salinomycin compositions were prepared as follows: A) 0.6 mg/mL composition: 3.03 mg of salinomycin sodium was added to 50 μL ethanol and vortexed for 1 minute to yield a clear solution. 200 μL of propylene glycol was then added and vortexed for 1 minute, yielding a clear solution. To this solution was next added 250 μL Solutol® HS 15, with vortexing for 1 minute and sonicating for 1 minute, to yield a clear solution.
(§5) Eight male ICR mice (Sino-British SIPPR/BK Lab Animal Ltd, Shanghai, China) were assigned to control and treatment groups. […] The individual animal number marked on the tail, and study number comprised a unique identification for each animal. Animal identification was verified during the course of the study. The animals were housed two per cage in stainless steel suspended cage in an environmentally controlled room. SLACOM (Rodent Diet #20110615029, Shanghai SLAC Laboratory Animal Co. Ltd.) was available ad libitum. Temperature and humidity were monitored and recorded twice daily.
(§6) Each composition and the vehicle (control) were administered once daily to each of two mice via intravenous bolus injection for 5 consecutive days. The dose levels for the treated groups and the control group are in the below table. Individual doses were based on the most recent body weight.
as §3

ICR mice [4] = assay: Tolerability 0.03, 0.1, 0.3, 1.0 mg/kg IV in 5% ethanol/10% propylene glycol/20% Solutol HS 15, 4 days (Example Q); settings: 5% ethanol/10% propylene glycol/20% Solutol HS 15 (heading)
Method: (§7) Using the techniques described above in Example A, an aqueous vehicle comprising 5% ethanol (v/v), 10% propylene glycol (v/v), and 10% Solutol® HS 15 (v/v) was prepared. An appropriate amount of salinomycin sodium was dissolved into the vehicle to make solutions having concentrations of 0.006, 0.02, 0.06, and 0.2 mg/mL. Ten male ICR mice (Sino-British SIPPR/BK Lab Animal Ltd, Shanghai, China) were assigned to control and treatment groups. […] The individual animal number was marked on the tail, and study number comprised a unique identification for each animal. Animal identification was verified during the course of the study. The animals were housed two per cage in stainless steel suspended cage in an environmentally controlled room. SLACOM (Rodent Diet #20110615029, Shanghai SLAC Laboratory Animal Co. Ltd.) was available ad libitum. Temperature and humidity were monitored and recorded twice daily.
as §2, §3

ICR mice [5] = assay: Tolerability 0.1, 0.3, 1.0, 3.0 mg/kg IV in 10% ethanol/10% Solutol HS 15, 4 days (Example M)
Method: as §7, with “B,” for “A,”, “10%” for “5%”, “(v/v)” for “(v/v), 10% propylene glycol (v/v),”, “of” for “of 0.006,”, “0.06, 0.2,” for “0.06,”, “0.3” for “0.2”
as §2, §3

ICR mice [6] = assay: Tolerability 0.3, 0.6, 1.0 mg/kg IV in 1% ethanol/4% propylene glycol/5% Solutol HS 15 (Example H); settings: male ICR mice
Method: as §4, with “0.2” for “0.6”, “1.01” for “3.03”
as §5, §6, §3

[7] = 1.0 mg/kg IV once daily 4 days, after the first administration, no abnormalities on days 2, 3, 4

## CC[C@@H](C(=O)[C@@H](C)[C@@H](O)[C@H](C)[C@@H]1O[C@@H]([C@@H](CC)C(=O)O)CC[C@@H]1C)[C@H]1O[C@]2(C=C[C@@H](O)[C@]3(CC[C@@](C)([C@H]4CC[C@](O)(CC)[C@H](C)O4)O3)O2)[C@H](C)C[C@@H]1C [salinomycin sodium]
ICR mice [1]; 0.1 mg/kg IV once daily 4 days
  Clinical observations: no abnormalities
ICR mice [1]; 0.3 mg/kg IV once daily 4 days
  Clinical observations: no abnormalities
ICR mice [1]; 1 mg/kg IV once daily 4 days, no abnormalities on days 2, 3, 4
  Clinical observations: decrease in activity after initial administration
ICR mice [1]; 0.1, 0.3, 1 mg/kg IV once daily 4 days, FIG. 9
  Body weight: increased
ICR mice [2]; 0.1 mg/kg IV once daily 4 days
  Clinical observations: no abnormalities
ICR mice [2]; 0.3 mg/kg IV once daily 4 days
  Clinical observations: no abnormalities
ICR mice [2]; [7]
  Clinical observations: decreased activity, decreased grasping, and laying prostrate
ICR mice [2]; 3.0 mg/kg IV
  Mortality: died shortly after administration
ICR mice [2]; each group surviving administration, IV once daily 4 days, FIG. 7
  Body weight: relatively stable
ICR mice [3]; 1.5 mg/kg IV once daily 5 days
  Clinical observations: decreased activity levels
  Recovery: returned to normal function at the conclusion of the study
ICR mice [3]; 2 mg/kg IV once daily 5 days
  Body weight: lost weight
ICR mice [3]; 2.0 mg/kg IV once daily 5 days, post dosage
  Clinical observations: decreased activity and rapid breathing
ICR mice [3]; 2.0 mg/kg IV once daily 5 days, two mice
  Mortality: One of the animals dosed at 2.0 mg/kg was found dead on day 4
ICR mice [3]; 3.0 mg/kg IV once daily 5 days, after dosing
  Clinical observations: decreased activity, rapid breathing and loss of reflex activity
ICR mice [3]; 1.5 and 3.0 mg/kg IV once daily 5 days
  Body weight: stable
ICR mice [4]; 0.03 mg/kg IV once daily 4 days
  Clinical observations: no abnormalities
ICR mice [4]; 0.1 mg/kg IV once daily 4 days, after administration, no abnormalities on days 2, 3, 4
  Clinical observations: decreased activity and discolored urine (red)
ICR mice [4]; 0.3 mg/kg IV once daily 4 days, after administration, no abnormalities on days 2, 3, 4
  Clinical observations: decreased activity and discolored urine (red)
ICR mice [4]; 1.0 mg/kg IV
  Mortality: died shortly after administration
ICR mice [4]; each group surviving administration, IV once daily 4 days, FIG. 10
  Body weight: relatively stable
ICR mice [5]; 0.1 mg/kg IV once daily 4 days
  Clinical observations: no abnormalities
ICR mice [5]; 0.3 mg/kg IV once daily 4 days, dissipated after 3 hours, no abnormalities on days 2, 3, 4
  Clinical observations: skin cold to the touch after the first administration
ICR mice [5]; [7]
  Clinical observations: decreased activity, decreased grasping, and skin cold to the touch
ICR mice [5]; 3.0 mg/kg IV
  Mortality: died shortly after administration
ICR mice [5]; each group surviving administration, IV once daily 4 days, FIG. 6
  Body weight: relatively stable
ICR mice [6]; 0.3, 0.6, 1.0 mg/kg IV bolus once daily 5 days
  Abnormalities detected: no abnormalities
ICR mice [6]; 0.3, 0.6, 1.0 mg/kg IV bolus once daily 5 days, FIG. 1
  Body weight change relative to Day 1: all groups added weight
ICR mice [6]; IV once daily 5 days
  Dose that can be safely dosed: 1 mg/kg
